This note sets out measurements from US11707464B2, “Methods of treating heavy menstrual bleeding” (AbbVie Inc., priority 2013, dated 2023).

In one data set the test system is women with endometriosis. As to the kind of experiment: Phase 2 endometriosis studies: safety and tolerability. Type of data set: in vivo, human. The source says: The safety and tolerability of elagolix in women with endometriosis has been evaluated in 6 completed Phase 2 studies including 708 women who received at least 1 dose of elagolix. Overall, 475 women have received elagolix for at least 12 weeks and 278 women for a period of at least 24 weeks. The majority of women were Caucasian (78.9% to 100%), while approximately 7% were black and approximately 4.5% were Hispanic. The mean age across these six Phase 2 studies was 31 to 33 years (range 18 to 48 years) and mean body mass index (BMI) of 23 to 28 kg/m. Overall, 40% to 70% of women had received prior therapy for the treatment of endometriosis, and hormonal contraceptives were the most common class of drug prescribed for the condition. In addition, the majority were receiving analgesic medications (nonsteroidal anti-inflammatory drugs, opioids, and/or other) prior to study enrollment.
None of these events were serious and they contributed to less than 1% of study discontinuations.

The subject of the next data set is women. Put plainly: Suppression of pituitary and ovarian hormones in women. Type of data set: in vivo, human. The source says:
The term “Elagolix” refers to 4-((R)-2-[5-(2-fluoro-3-methoxy-phenyl)-3-(2-fluoro-6-trifluoromethyl-benzyl)-4-methyl-2,6-dioxo-3,6-dihydro-2H-pyrimidin-1-yl]-1-phenyl-ethylamino)-butyric acid or a pharmaceutically acceptable salt thereof. Elagolix is an orally active, non-peptide GnRH antagonist and is unlike other GnRH agonists and injectable (peptide) GnRH antagonists. […] Methods of making Elagolix and a pharmaceutically acceptable salt thereof are described in WO 2005/007165, the contents of which are herein incorporated by reference.

Regarding `COc1cccc(-c2c(C)n(Cc3c(F)cccc3C(F)(F)F)c(=O)n(C[C@H](NCCCC(=O)O)c3ccccc3)c2=O)c1F` [Elagolix, 4-((R)-2-[5-(2-fluoro-3-methoxy-phenyl)-3-(2-fluoro-6-trifluoromethyl-benzyl)-4-methyl-2,6-dioxo-3,6-dihydro-2H-pyrimidin-1-yl]-1-phenyl-ethylamino)-butyric acid], in the data set with women with endometriosis (12-week and 24-week analysis sets, incidence similar to DMPA-SC in 24-week analysis), the “most common adverse events” value was “headache and nausea”. In the data set on women with endometriosis (all daily doses (100 to 250 mg) evaluated), the safety and tolerability result was “safe and well tolerated”. Besides, the “incidence of AEs that led to discontinuations” value in the data set on women with endometriosis (completed Phase 2 endometriosis studies) amounted to 4.8%. Also, the “study discontinuations contributed by headache and nausea” value with women with endometriosis (none of these events serious) is listed as “less than 1%”. In addition, the “suppression of pituitary and ovarian hormones” value with women is given as “dose dependent suppression”.
